Reference: patent US20210000814A1, “RIMEGEPANT FOR CGRP RELATED DISORDERS” (Biohaven Pharmaceutical Holding Company Ltd., priority 2018, published 2021)

Key:
Assay type in all cases: in vivo, human
[1] = system: subjects with Acute Migraines; assay: BHV3000-303 Phase 3 trial, rimegepant ODT, acute treatment of migraine: efficacy; conditions: Study 303; single dose
Experimental: Clinical Trial—BHV3000-303: Phase 3: Double-Blind, Randomized, Placebo-Controlled, Safety and Efficacy Trial of BHV-3000 (Rimegepant) Orally Discintegrating Tablet (ODT) for the Acute Treatment of Migraine (ClinicalTrials.gov Identifier: NCT03461757) • A phase 3 clinical study was conducted with 1812 participants, as follows. The purpose of this study is to compare the efficacy of BHV-3000 (rimegepant ODT) versus placebo in subjects with Acute Migraines. […] Pain freedom of rimegepant compared with placebo in the acute treatment of migraine will be measured using the number of evaluable subjects that report no pain at 2 hours post-dose. [Time Frame: Two hours post dose] will be measured on a 4 point Likert scale (0=none, 1=mild, 2=moderate, 3=severe) 2. Freedom from the most bothersome symptom (MBS) of rimegepant compared with placebo will be measured using the number of evaluable subjects that report the absence of their MBS at 2 hours post-dose. […] The MBS (nausea, phonophobia or photophobia) will measured using a binary scale (0=absent, 1=present). […] To measure rimegepant compared to placebo on the probability of requiring rescue medication will be assessed using the number of subjects that take rescue medication within […] administration of study medication (BHV3000 or placebo). […]

[2] = BHV3000-201 open label long-term safety study, interim analysis
Experimental: Clinical Trial—BHV3000-201: Open Label Safety Study in Acute Treatment of Migraine (ClinicalTrials.gov Identifier: NCT 03266588)
A phase 2/3 clinical study is conducted with about 2000 participants, as follows.
The purpose of this study is to evaluate safety and tolerability of BHV3000 (rimegepant).
Study Design • Study Type: Interventional (Clinical Trial) • Estimated Enrollment: 2000 participants • Intervention Model: Single Group Assignment • Masking: None (Open Label) • Primary Purpose: Treatment • Official Title: A Multicenter, Open Label Long-Term Safety Study of BHV3000 in the Acute Treatment of Migraine • Actual Study Start Date: Aug. 30, 2017 • Estimated Primary Completion Date: July 2019 • Estimated Study Completion Date: July 2019
1. To assess the safety and tolerability of rimegepant (BHV-3000) by measuring the frequency and severity of adverse events and discontinuations due to adverse events [Time Frame: 52 weeks]Number of subjects with treatment-emergent adverse events as assessed through laboratory tests, ECGs, physical exam findings (safety and tolerability)
1. ALT or AST >3×ULN with total bilirubin >2×ULN [Time Frame: 52 weeks]elevated liver function tests
2. hepatic related adverse events and hepatic related adverse events that lead to discontinuation [Time Frame: 52 weeks]adverse events related to liver
Patients were allowed to treat migraine attacks of all severities (mild to severe) up to once daily for a full year. The initial results for hepatic safety and tolerability of rimegepant 75 mg in study participants is based upon review of both adverse events and regularly scheduled liver function tests. Interim hepatic data were reviewed by an external and independent panel of liver experts. […] In the aggregate, it was noted that compared to migraine trials with drugs other than rimegepant, there was a very low incidence of overall elevations of liver function test abnormalities in rimegepant treated patients (1.0% incidence of serum ALT or AST >3x ULN). Subjects will continue to participate in Study 201 with additional data analyses to be submitted in the NDA and required 120-day safety updates.

[3] = BHV3000-302 Phase 3 trial: safety and tolerability; conditions: Study 302
Experimental: In a double-blind, randomized, placebo-controlled, multicenter study (Study 302, NCT03237845) adults […] of age with at least a 1-year history of ICHD 3-beta migraine were eligible to participate. Following a 3- to 28-day screening period, subjects were randomized to receive rimegepant 75 mg or matching placebo and instructed to treat a single migraine attack with 1 dose of the blinded study drug (rimegepant or placebo) when headache pain reached moderate or severe intensity. The coprimary endpoints were pain freedom at 2 hours postdose and freedom from the most bothersome symptom (MBS) at 2 hours postdose. Safety assessments included adverse events (AEs), ECGs, vital signs, physical measurements, and routine laboratory tests, including assessment of liver function. Unless stated otherwise, values presented are mean±SD.

## N[C@@H]1c2cccnc2[C@H](OC(=O)N2CCC(n3c(=O)[nH]c4ncccc43)CC2)CC[C@H]1c1cccc(F)c1F [Rimegepant, [(55,65,9R)-5-amino-6-(2,3-difluorophenyl)-6,7,8,9-tetrahydro-5H-cyclohepta[b]pyridin-9-yl]4-(2-oxo-3H-imidazo[4,5-b]pyridin-1-yl)piperidine-1-carboxylate]
[1]
  clinical benefit through 48 hours on pain relief, pain freedom, MBS, functional disability versus placebo: Lasting clinical benefit
[2]; Study 201 interim analysis
  safety and tolerability of long-term dosing: consistent with the profile observed in phase 1- 3 studies
[2]; Study 201 interim, 75 mg up to once daily
  incidence of serum ALT or AST >3x ULN: 1.0%
[2]; Study 201 interim, incl. near-daily dosing (>=15 doses/month)
  liver safety signal: no liver safety signal detected
[2]; Study 201 interim, independent liver panel
  liver cases assessed as probably related to study drug: no liver cases
[3]
  bilirubin elevations greater than 2 times ULN: no bilirubin elevations
  transaminase level greater than 3 times ULN: No subject
[3]; 75 mg oral tablet
  safety and tolerability profile: favorable tolerability and safety
[3]; back pain
  Serious AEs (SAEs): 1 subject
